The source of these data is patent US20040126437A1, “Typing natural products” (priority 2000, published 2004).

Molecules are shown by their SMILES. In brackets after ≈: the same amount, converted by molar mass.

The test system of assay [1] is Pseudomonas aeruginosa. As to the kind of experiment: Antibacterial activity, inhibition halos in culture. The format is cell-based. An excerpt: (§1) The insulated compounds DCBEN, DHCA, E and mixture of E+DPB have their antibacterial properties tested in cultures of E.coli, Pseudomonas aeruginosa, Staphylococcus aureus and Streptococcus faecalis. Inhibition halos (in mm) and the obtained data recorded as in FIG. 1.
(§2) Antibacterial activity of the compounds K, G1, G2 e L2 has been evaluated in cultures of E.coli, Pseudomonas aeruginosa, Staphylococcus aureus and Streptococcus faecalis. Inhibition halos have been measured (mm) and the data recorded as in FIG. 1. S.aureus, S.faecalis e E.coli, are sensitive to the tested compounds, just varying the halos, the compound G2 has the most toxity in cultures of S.aureus e S.faecalis. None of the tested compounds had effect in P.aeruginosa.

A further assay has as its system Escherichia coli. The assay is described as above. The format is cell-based. The conditions noted are these: for Antibacterial activty, inhibition halo: Escherichia coli culture.
Source text: as §1, §2

The test system of a further assay is Streptococcus faecalis. The description is as above. The format is cell-based. The conditions noted are these: Streptococcus faecalis culture.
Source text: as §1, §2

Assay [2] concerns Staphylococcus aureus. The assay is described as above. The conditions noted are these: Staphylococcus aureus culture. The assay is classed as cell-based.
Source text: as §1, §2

The next assay deals with T. cruzi trypomastigotes. Description: Effects against T. cruzi trypomastigotes cultures. The assay is classed as cell-based, Trypanosoma cruzi. The procedure: FIG. 2 are recorded ID50 data related to trypomastigotes cultures (one of the growing stages of Trypanosoma cruzi (T.cruzi)) also to the compounds DCBEN, DHCA, E and mixture E+DPB and the effects of said compounds extracted from propolis trypomastigotes of T.cruzi (in mg/mL). […] The same result for Violet Crystal is 0.205 mg/mL, as previously mentioned. The results for insulated compounds are greater than the Violet Crystal.

For assay [3], the system named is insulated cavy trachea (ICT). To be noted: ICT contracted with hystamine (1 μM), cited from earlier work.
A further assay deals with Microsporeum gypseum. To be noted: cited from earlier work.
In assay [4] the test system is uterus colon carcinoma (line L5-26). To be noted: uterus colon carcinoma line L5-26; cited from earlier work.
In assay [5] the test system is Thermoactinomyces intermedius. To be noted: cited from earlier work.
In assay [6] the test system is Staphylococcus aureus. To be noted: cited from earlier work.
Assay [7] has as its system Pseudomonas aeruginosa. The conditions noted are these: cited from earlier work.
The subject of a further assay is Corynebacterium equii. To be noted: cited from earlier work.
Assay [8] relates to fibrosarcoma (line HT-1080). The conditions noted are these: fibrosarcoma line HT-1080; cited from earlier work.
The subject of another assay is B.subtilis. The conditions noted are these: cited from earlier work.
Assay [9] has as its system Micrococcus lysodeikticus. The conditions noted are these: cited from earlier work.
Another assay deals with Mycobacterium smegmatis. The conditions noted are these: cited from earlier work.
Another assay relates to A.benhamiae. To be noted: cited from earlier work.
The test system of assay [10] is Staphylococcus epidermidis. To be noted: cited from earlier work.
For the next assay, the system named is Mycobaterium phlei. The conditions noted are these: cited from earlier work.
For assay [11] the following is noted: insulated labdan acids; cited from earlier work.

With `CC1(C)C=Cc2cc(C=CC(=O)O)ccc2O1` [DCBEN, 2,2-Dimethyl-6-carboxiethenyl-2H-1-benzopyran], the “Antibacterial activty, inhibition halo” value was “Ø” with Pseudomonas aeruginosa [1]; “+ (+ halo < or = to 8 mm)” with Escherichia coli; “++ (++ halo > or = to 8 mm and < 12 mm)” with Streptococcus faecalis; “++ (++ halo > or = to 8 mm and < 12 mm)” with Staphylococcus aureus [2]. In the assay with T. cruzi trypomastigotes, this compound showed an ID50/24 h of 1696 ± 32 µg/mL (≈ 7370 µM). In assay [3] (read-out: CE50 (the source's name)), the EC50 is 250 nM. In addition, the “Emax, tension” value in assay [3] (relaxation) was 0.80 ± 0.05 g.
As for `CC(C)=CCc1cc(C=CC(=O)O)cc(CC=C(C)C)c1O` [DHCA, 3,5-diprenyl-4-hydroxycinnamic acid], the MIC (as a rule, the least concentration at which growth counts as inhibited) with Microsporeum gypseum is 7,8 μg/mL; in [5], 62.5 µg/mL (≈ 208 µM); in the assay with Staphylococcus aureus [6], 62.5 µg/mL (≈ 208 µM); with Pseudomonas aeruginosa [7], 31.3 µg/mL (≈ 104 µM); in the assay on Mycobacterium smegmatis, 31.3 µg/mL (≈ 104 µM); in the assay on A.benhamiae, 15,6 μg/mL. The MIC in the assay with Mycobaterium phlei is 62.5 µg/mL (≈ 208 µM). Besides, the “ED50 (cytotoxic dosage—50%)” value in assay [4] was 59,32 μg/mL; in assay [8], 45.47 µg/mL (≈ 151 µM). Besides, the “Antibacterial activty, inhibition halo” value was “Ø” with Pseudomonas aeruginosa [1], “Ø” with Escherichia coli, “+ (+ halo < or = to 8 mm)” in the assay on Streptococcus faecalis and “+ (+ halo < or = to 8 mm)” in the assay on Staphylococcus aureus [2]. The “Antibacterial effect in words” value with Escherichia coli (E.coli culture) is recorded as “did not present inhibition activity”. In the assay with T. cruzi trypomastigotes, this compound showed an ID50/24 h of 932 ± 46 µg/mL (≈ 3100 µM). Further, the CIM in the assay on Corynebacterium equii is 31.3 μg/m/L; in the assay on B.subtilis, 31.3 µg/mL; in assay [9], 31.3 µg/mL; in assay [10], 62.5 µg/mL.
For the compound `C=C1CC[C@@H]2[C@](C)(CCC[C@]2(C)C(=O)O)[C@H]1CC/C(C)=C/CO` [[b], isocupressic acid], the “Antibacterial activity by bioautography” value in assay [11] is given as “most active”.
As to `C=C1CC[C@@H]2[C@](C)(CCC[C@]2(C)C(=O)O)[C@H]1CC[C@H](C)CCO` [[d], imbricatoloic acid], in assay [11], the “Antibacterial activity by bioautography” value was “most active”.
